Measurements published in patent US9164099B2, “Site-specific labeling of affinity tags in fusion proteins” (LIFE TECHNOLOGIES CORPORATION, priority 2002, dated 2015).

How the values were obtained:
Assay type in all cases: binding
[1] = test system: oligohistidine-tagged fusion proteins (the a subunit of Escherichia coli ATPase and porin); experiment: Detection of poly-histidine affinity tag fusion proteins on a microarray; settings: 10 μM compound, 50 mM PIPES pH 6.5
Procedure: Purified oligohistidine-tagged fusion proteins (the a subunit of Escherichia coli ATPase and porin), as well as control proteins (bovine serum albumin and ovalbumin) are arrayed from a source plate (384 well plate) concentration of 0.468 μg/ml-0.240 mg/ml in water, onto HydroGel coated slides (Perkin Elmer), using the BioChip Arrayer™ (Perkin Elmer). The BioChip Arrayer™ utilizes a PiezoTip™ Dispenser consisting of 4 glass capillaries. Proteins are dispensed from the PiezoTip™ by droplets […] in volume to create array spots ˜200 microns in diameter with a 500 micron horizontal and vertical pitch (pitch=center to center spacing of spots). Proteins are arrayed in duplicate in four rows, with 10 dilution points. The resulting concentration range of the array is 166.5 pg/spot-0.325 pg/spot. For detection of oligohistine-tagged proteins, slides are incubated for 45 minutes on a rotator in 50% ethanol/7% acetic acid and then fixed overnight in fresh fixative solution to ensure complete elimination of SDS. Microarrays are next washed 3 times for 20 minutes each in deionized water. The microarrays are then incubated in a staining solution containing 10 μM Compound 2 or Compound 15; 50 mM PIPES at pH 6.5 for 45-90 minutes. Afterwards, the microarrays are washed 2 to 4 times for 20 minutes each in deionized water. […]

[2] = test system: poly-histidine affinity tag containing fusion protein (urate oxidase); experiment: Gel detection of His-tagged urate oxidase with and without nickel ions (FIG. 1); settings: staining solution without nickel ions compared with nickel ions
Procedure: FIG. 1B is a graph showing data from the same experiment performed without nickel ions.
Escherichia coli BL21 DE3 cells were transformed with plasmids containing either the human ATP synthase a subunit, the d subunit (including the leader sequence) or urate oxidase. Both proteins were constructed to have a poly-histidine affinity tag comprising six histidine residues, at the N-terminus and could be induced by isopropyl-beta-D-thiogalactoside (IPTG) addition to the medium. Pre-cultures (10 ml) were grown overnight in bacterial cell culture medium (LB medium) at 37° C. with constant shaking. The next day 100 μl was transferred to 50 ml of fresh LB medium containing 0.1 mg/ml ampicillin and grown until they reached an optical density at 595 nm (OD595) of 0.8. At this point 5 ml of culture was removed and immediately frozen on dry ice. To the rest of the culture 0.8 mM IPTG was added to induce the over-expression of the subunits. Samples (5 ml each) were taken after 10 min, 30 min, 1 h, 1.5 h, 2 h, 2.5 h, and 3 h and again frozen on dry ice. […]
The resulting green-fluorescent signal produced by compound 2 was visualized using the 473 nm excitation line of the SHG laser on the Fuji FLA-3000G Fluorescence Image Analyzer (Fuji Photo, Tokyo, Japan) with the 520 nm long pass filter or the 580 nm band pass filter, respectively. […]

[3] = biological target: T1, poly-histidine affinity tag containing fusion protein (Oligomycin sensitivity conferring protein; OSCP) (Homo sapiens, UniProt P48047); experiment: Gel detection of His-tagged OSCP followed by SYPRO Ruby total protein stain (FIG. 2, 3); settings: staining solution containing nickel ions; compared with SYPRO Ruby total protein stain
T1 construct: poly-histidine; made in house
T1 sequence (P48047 24-213): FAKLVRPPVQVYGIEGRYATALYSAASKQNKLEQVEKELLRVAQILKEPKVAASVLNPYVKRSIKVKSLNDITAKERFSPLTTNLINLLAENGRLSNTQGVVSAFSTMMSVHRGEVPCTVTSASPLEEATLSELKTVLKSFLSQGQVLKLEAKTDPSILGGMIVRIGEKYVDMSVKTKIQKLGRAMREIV
Excerpt: (§1) FIG. 2: FIG. 2A is a graph showing the detection of a poly-histidine affinity tag containing fusion protein (Oligomycin sensitivity conferring protein; OSCP) labeled with Compound 2 in a staining solution containing nickel ions followed by the detection of (shown in FIG. 2B) total protein using the total protein stain SYPRO® Ruby.
as §1, with “3:” for “2:”, “3A” for “2A”, “15” for “2”, “3B)” for “2B)”
Following separation of the proteins on a SDS-polyacrylamide gel, the gels were fixed for 20 minutes in 100 ml of 50% ethanol/7% acetic acid and then fixed overnight in 100 ml of fresh fixative solution to ensure complete elimination of SDS. Gels were next washed 3 times for 20 minutes each in deionized water. The gels were then incubated in a staining solution containing 10 μM compound 1 or 2 μM compound 2; 100 μM NiCl2; 50 mM PIPES at pH 6.5 for 45-90 minutes in a total volume of 25 ml. Afterwards, the gels were washed 2 to 4 times for 20 minutes each in deionized water. In order to ensure that the optimal signal was documented, gels were imaged after the second and fourth wash. […]

Substance: 4,4-difluoro-4-bora-3a,4a-diaza-s-indacene-3,5-bis((6-(propionyl)amino-2-bis(carboxymethyl)amino)hexanoic acid), hexatriethylammonium salt [Compound 2]
- signal on control proteins (bovine serum albumin and ovalbumin) [1]: little or no signal
- sensitivity for the poly-histidine affinity tag [2]: increased sensitivity
- selectivity for the poly-histidine affinity tag [3]: selective
